In this experiment the target is T1, hDMT1 (SLC11A2) (Homo sapiens, UniProt P49281).
T1 construct: DsRED; expressed in transfected cells
T1 sequence (P49281 1-568): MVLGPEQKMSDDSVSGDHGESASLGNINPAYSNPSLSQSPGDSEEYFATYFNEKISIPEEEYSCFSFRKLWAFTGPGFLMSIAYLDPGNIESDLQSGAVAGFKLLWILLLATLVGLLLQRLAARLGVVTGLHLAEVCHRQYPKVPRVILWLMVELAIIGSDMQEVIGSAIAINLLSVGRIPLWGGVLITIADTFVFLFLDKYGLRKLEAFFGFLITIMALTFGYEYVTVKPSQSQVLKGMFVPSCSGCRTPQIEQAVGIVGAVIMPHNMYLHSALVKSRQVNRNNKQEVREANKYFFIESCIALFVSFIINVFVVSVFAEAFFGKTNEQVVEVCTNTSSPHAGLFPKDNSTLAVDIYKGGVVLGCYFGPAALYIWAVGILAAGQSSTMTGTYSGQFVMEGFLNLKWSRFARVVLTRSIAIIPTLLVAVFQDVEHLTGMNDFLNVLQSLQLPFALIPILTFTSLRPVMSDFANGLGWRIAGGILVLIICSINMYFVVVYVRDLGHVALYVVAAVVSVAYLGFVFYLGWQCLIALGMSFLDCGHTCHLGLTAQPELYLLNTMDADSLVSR
Put plainly: radioactive iron uptake assay in HEK293 cells stably overexpressing hDMT1. The conditions noted are these: for Ligand efficiency: from IC50 of radioactive iron uptake in HEK293-hDMT1; for IC50: radioactive iron 1 μM, 15 min incubation, extracellular pH 5.5, HEK293 stably overexpressing hDMT1; for inhibition at 10 µM: HEK293, 10 μM compound, radioactive iron uptake, pH 5.5. It counts as cell-based.

The record followed here is article PMC7649969, “Pyrazolyl-pyrimidones inhibit the function of human solute carrier protein SLC11A2 (hDMT1) by metal chelation” (RSC Medicinal Chemistry, 2020).

For `Cc1cc(C)c(CSC(=N)N)c(C)c1CSC(=N)N` [Compound 2, reference compound], the Ligand efficiency is given as 0.25. As usually defined, the IC50 is the point on the concentration scale where inhibition reaches its midpoint. Turning to `Cc1cc(=O)[nH]c(-n2nc(C)c(C)c2C)n1` [Compound 6], the Ligand efficiency came out at 0.44 and the IC50 is 10 ± 0.4 µM. For `CCc1c(C)nn(-c2nc(C)cc(=O)[nH]2)c1C` [Compound 7] the same measures were 0.40 and 4.2 ± 0.4 µM. Usually inhibition stands for the relative decrease from the control value, in per cent. Regarding `Cc1cc(=O)[nH]c(-n2nc(C)c(-c3ccccc3)c2C)n1` [Compound 8], the inhibition at 10 µM is below 20%. Same read-out and setting: then `Cc1cc(=O)[nH]c(-n2nc(C)c(Cc3ccccc3)c2C)n1` [Compound 9], with below 20%; and `Cc1cc(=O)[nH]c(-n2nc(C(C)(C)C)cc2C)n1` [Compound 10], with below 20%.

Regarding `Cc1cc(=O)[nH]c(-n2nc(-c3ccccc3)cc2C)n1` [Compound 11], the inhibition at 10 µM was below 20%. Still for that read-out and setting: the value for `Cc1cc(=O)[nH]c(-n2nc3c(c2C)CCC3)n1` [Compound 12] was below 20%. On the same count and under the same terms, the value for `Cc1cc(=O)[nH]c(-n2nc3c(c2C)COCC3)n1` [Compound 14] was below 20%; that for `Cc1cc(=O)[nH]c(-n2nc3c(c2C)CNCC3)n1` [Compound 15] was below 20%. On to `CCc1cc(CC)n(-c2nc(C)cc(=O)[nH]2)n1` [Compound 16], for which the Ligand efficiency amounted to 0.45 and the IC50 stood at 3.8 ± 0.2 µM.

Turning to `CCc1c2c(nn1-c1nc(C)cc(=O)[nH]1)CCCC2` [Compound 17], the Ligand efficiency stood at 0.42 and the IC50 was determined as 2.26 ± 0.3 µM.

As for `Cc1cc(=O)[nH]c(-n2nc3c4c2CCCC4CCC3)n1` (stereo not shown) [Compound 18], the Ligand efficiency was found to be 0.42 and the IC50 is 0.94 ± 0.2 µM.

Take `Cc1cc(C)n(-c2nc(C)c(C)c(O)n2)n1` [Compound 19]: the Ligand efficiency was found to be 0.43 and the IC50 amounted to 12.5 ± 0.3 µM. In the case of `Cc1cc(C)nc(-n2nc(C)cc2C)n1` [Compound 20], the inhibition at 10 µM was below 20%. Same read-out and setting: the value for `CCc1cc(=O)n(-c2nc(C)cc(=O)[nH]2)[nH]1` [Compound 21] was below 20%; that for `Cc1cc(=O)[nH]c(-n2[nH]c(C)c(Cc3ccccc3)c2=O)n1` [Compound 22] was below 20%. As to `CCc1cc(=O)[nH]c(-n2[nH]c(C)cc2=O)n1` [Compound 24], the inhibition at 10 µM is below 20%. As to `CCOC(=O)c1cnc(-n2[nH]c(C)cc2=O)[nH]c1=O` [Compound 25], the inhibition at 10 µM is below 20%.
